# Source: PubChem BioAssay AID1645866 (Buhrlage Lab, Dana-Farber Cancer Institute and Novartis …, 2021)
# pIC50: −log10 of the molar value. Active and inactive are the calls of the source.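 How the source made its calls: active means in confirmatory dose-response testing, peak deubiquitinase inhibition of 30% or more; inactive means the rest.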
# Biological target: Ubiquitin carboxyl-terminal hydrolase 28 (Homo sapiens) (UniProt Q96RU2)
# Test: Concentration-response biochemical assay confirming initial hits as inhibitors of ubiquitin-specific protease 28 (AID 1645866)
# Conditions: purified USP28, ubiquitin-rhodamine fluorescence, 30 min
# Ubiquitin carboxyl-terminal hydrolase 28 (Homo sapiens), sequence (Q96RU2 whole entry, looked up): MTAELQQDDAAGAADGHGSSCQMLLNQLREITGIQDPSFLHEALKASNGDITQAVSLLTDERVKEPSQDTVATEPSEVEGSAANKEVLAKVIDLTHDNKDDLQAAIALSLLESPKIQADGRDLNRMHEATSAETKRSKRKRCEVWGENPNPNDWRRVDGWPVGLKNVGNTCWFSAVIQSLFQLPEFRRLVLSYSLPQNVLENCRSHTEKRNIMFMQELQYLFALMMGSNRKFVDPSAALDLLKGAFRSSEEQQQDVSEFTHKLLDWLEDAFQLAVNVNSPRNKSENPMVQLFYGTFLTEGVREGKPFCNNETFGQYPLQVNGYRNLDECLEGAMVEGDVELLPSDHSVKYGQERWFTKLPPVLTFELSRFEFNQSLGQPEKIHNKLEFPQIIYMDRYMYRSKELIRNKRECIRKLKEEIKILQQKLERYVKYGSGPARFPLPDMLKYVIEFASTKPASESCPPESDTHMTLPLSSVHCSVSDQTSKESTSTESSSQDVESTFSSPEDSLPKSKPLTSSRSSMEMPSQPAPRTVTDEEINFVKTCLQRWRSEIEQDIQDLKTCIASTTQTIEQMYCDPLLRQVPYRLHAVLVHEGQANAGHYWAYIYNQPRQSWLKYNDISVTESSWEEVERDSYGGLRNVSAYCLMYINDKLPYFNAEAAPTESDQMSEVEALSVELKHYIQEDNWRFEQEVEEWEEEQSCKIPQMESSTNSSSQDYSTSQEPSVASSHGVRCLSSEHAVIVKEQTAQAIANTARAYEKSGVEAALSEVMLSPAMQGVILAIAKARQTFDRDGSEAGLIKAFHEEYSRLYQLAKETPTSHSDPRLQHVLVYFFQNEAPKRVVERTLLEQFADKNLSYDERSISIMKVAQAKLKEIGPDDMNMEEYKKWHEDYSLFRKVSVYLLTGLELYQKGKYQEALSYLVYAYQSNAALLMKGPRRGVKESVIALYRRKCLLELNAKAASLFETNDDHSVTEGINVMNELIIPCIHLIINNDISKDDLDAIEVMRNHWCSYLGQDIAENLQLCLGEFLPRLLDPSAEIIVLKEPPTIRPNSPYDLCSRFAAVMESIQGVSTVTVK
IC50,pIC50,SMILES
> 50 µM (inactive),–,COc1ccc(-n2ccc(=O)c(-c3nc(-c4ccccc4F)no3)n2)cc1OC
> 50 µM (inactive),–,CCOC(=O)c1cc2c(ccn2C)n1Cc1cccc2ccccc12
> 50 µM (inactive),–,CCN(CC(=O)Nc1cc(C)on1)c1cccc2ccccc12
–,4.59,Cc1c(-c2nnc(-c3ccccn3)o2)nnn1-c1cccc(Cl)c1
–,4.46,O=C(c1ccco1)N1CCC2(CC1)CC1(CO2)Nc2ccccc2-n2cccc21 (stereo unspecified)
–,4.75,N#C/C(=C\c1ccc(OCc2cccc(C(=O)O)c2)cc1)c1ccc(F)cc1
–,5.74,O=c1c(-c2nc(C3CC3)no2)cccn1Cc1c(F)cccc1Cl
–,5.20,COc1cccc(NC(=O)Nc2ccc(CCc3nc4ccccc4[nH]3)cc2)c1
–,4.66,COc1ccc(-c2cc(-c3ccc(F)cc3)[nH]c(=O)c2C#N)cc1
–,5.17,CC(C)(C)n1ncc2c(=O)n(Cc3cccc([N+](=O)[O-])c3)cnc21
–,4.94,O=C(Cn1c(=O)n(Cc2ccc(F)cc2)c(=O)c2sccc21)Nc1cccc(Cl)c1
> 50 µM (inactive),–,Nc1c(C(=O)c2cccs2)oc2nc(-c3ccccc3)cc(-c3ccco3)c12
–,5.46,COc1ccc(Cn2c(=O)[nH]c3cc(C(=O)NCCCN4CCN(c5cccc(Cl)c5)CC4)ccc3c2=O)cc1
–,5.20,Cc1ccc(C(=O)Nc2cc3c4c(c2)CC(=O)N4CCC3)cc1C
–,4.82,Cc1[nH]nc(NC(=O)C2COc3ccccc3O2)c1-c1ccccc1 (stereo unspecified)
–,4.48,CC1(C)Cc2nc3sc4c(=O)n(CC(=O)NCc5ccccc5)cnc4c3cc2CO1
–,4.87,Cc1ccc([N+](=O)[O-])cc1S(=O)(=O)Nc1cc2sc(=O)oc2c2ccccc12
–,4.55,Cc1cc(-c2ccnc3c(C#N)cnn23)c(C)s1
> 50 µM (inactive),–,Cc1cccc(NC(=O)c2ccn(COc3ccc(F)cc3F)n2)c1C
–,5.43,Cc1cccc(C(=O)Nc2cccc(SC(C(=O)Nc3ccc(O)c(C(=O)O)c3)c3ccccc3)c2)c1 (stereo unspecified)

IC50,pIC50,SMILES
–,4.50,O=C(Nc1ccc2c(c1)OCCO2)c1ccc(N2CCCCC2)nn1
–,4.67,Cc1cc(C#N)c2c(C)ccc(C(C)C)cc1-2
> 50 µM (inactive),–,Cc1ccc(-c2ncc(C(=O)NCc3cccc(C)c3)c(-c3ccncc3)n2)cc1
> 50 µM (inactive),–,CSc1cccc(NC(=O)CCc2ccc3nc(NC(C)=O)sc3c2)c1
–,4.77,COc1ccc(C(C(=O)NC2CCCCC2)N(C(=O)CCCC(=O)Nc2ccccn2)c2ccccc2C)cc1 (stereo unspecified)
–,4.68,c1ccc(-n2nnc(-c3noc(-c4cccnc4)n3)c2-c2ccncc2)cc1
–,4.45,COc1ccc(CCNC(=O)CCCn2c(SCC(=O)NCc3ccco3)nc3ccccc3c2=O)cc1OC
–,4.63,COc1ccc(C2C(C(=O)Nc3ccccc3OC)=C(C)Nc3nnnn32)cc1Br (stereo unspecified)
–,4.43,Cc1nc(-c2noc(-c3ccncc3)n2)cn1CC(=O)N1CCN(c2ccc(F)cc2)CC1
–,5.54,CCc1nc2c(NC(=O)Nc3cccc(C(=O)OC)c3)cccn2n1
> 50 µM (inactive),–,CN1CC2CN(C(=O)Nc3cccnc3)CCN2Cc2ccccc21 (stereo unspecified)
–,5.53,C/C=C1/C2=CCCN3C(=O)O[C@H]([C@H]1O)[C@H]23
–,4.71,Cc1cc(=O)n(CC(=O)Nc2ccccc2C)c(Nc2ccc(F)cc2)n1
–,4.46,O=C(CSc1nnc2n1CCCCC2)Nc1ccc2[nH]c(=O)[nH]c2c1
–,4.40,Cc1ccc(S(=O)(=O)c2cnc(SCC(=O)Nc3ccc(Cl)cc3)nc2N)cc1C
–,4.51,Nc1c(-c2nc(-c3ccc4c(c3)OCO4)cs2)nnn1-c1ccccc1
–,4.90,c1ccc(-c2nc(-c3nnn(-c4ccccc4)c3-c3ccncc3)no2)cc1
–,5.40,COC(=O)c1ccc(Cn2cnc3ccc(F)cc3c2=O)o1
–,4.84,COc1ccc(NC(=O)C2CC(=O)Nc3c(-c4ccc(Cl)cc4)cnn32)c(OC)c1 (stereo unspecified)
–,5.16,Cc1cccc(NC(=O)Cn2c(=O)n(Cc3ccc(F)cc3)c(=O)c3sccc32)c1

SMILES,IC50,pIC50
CC1Oc2cc3c(-c4c(O)cc(O)c5c(O)c6c(cc45)OC(C)C(C)C6=O)c(O)cc(O)c3c(O)c2C(=O)C1C (stereo unspecified),–,5.66
